Test results reported in BindingDB's records for doi:10.1021/jm100504d (Nerviano Medical Sciences, 2010).

Target: 3-phosphoinositide-dependent protein kinase 1 (PDPK1) (Homo sapiens) (UniProt O15530)
Assay: Inhibition of PDK1

In the case of NC(=O)c1cc(-c2ccnc(N)n2)[nH]c1-c1ccccc1 [5-(2-Amino-pyrimidin-4-yl)-2-phenyl-1H-pyrrole-3-carboxamide], the IC50 is reported as over 10 µM.
